Experimental data as given in PubChem BioAssay (NCI).
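Exposure lasted 48 hours, with cells grown in 96-well plates and compounds tested at five concentrations. Definition used: TGI = concentration required for complete inhibition of growth.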

Columns and labels:
Experiment in all cases: inhibition of tumour cell growth, NCI panel, 48 h
NCI-H23 lung = test system: NCI-H23 lung
IGROV1 ovarian = test system: IGROV1 ovarian
TK-10 renal = test system: TK-10 renal
T-47D breast = test system: T-47D breast
OVCAR-3 ovarian = test system: OVCAR-3 ovarian
LOX IMVI melanoma = test system: LOX IMVI melanoma
MDA-N = test system: MDA-N
KM12 colon = test system: KM12 colon
SNB-19 CNS = test system: SNB-19 CNS
MDA-MB-231 breast = test system: MDA-MB-231 breast
RXF 393 renal = test system: RXF 393 renal
OVCAR-5 ovarian = test system: OVCAR-5 ovarian
ACHN renal = test system: ACHN renal
SK-OV-3 ovarian = test system: SK-OV-3 ovarian
SK-MEL-28 melanoma = test system: SK-MEL-28 melanoma
EKVX NSCLC = test system: EKVX NSCLC
RPMI-8226 leukemia = test system: RPMI-8226 leukemia
NCI-H522 lung = test system: NCI-H522 lung
HCC-2998 colon = test system: HCC-2998 colon
DU-145 prostate = test system: DU-145 prostate

Row | Structure (SMILES) | TGI (NCI-H23 lung) | TGI (IGROV1 ovarian) | TGI (TK-10 renal) | TGI (T-47D breast) | TGI (OVCAR-3 ovarian) | TGI (LOX IMVI melanoma) | TGI (MDA-N) | TGI (KM12 colon) | TGI (SNB-19 CNS) | TGI (MDA-MB-231 breast) | TGI (RXF 393 renal) | TGI (OVCAR-5 ovarian) | TGI (ACHN renal) | TGI (SK-OV-3 ovarian) | TGI (SK-MEL-28 melanoma) | TGI (EKVX NSCLC) | TGI (RPMI-8226 leukemia) | TGI (NCI-H522 lung) | TGI (HCC-2998 colon) | TGI (DU-145 prostate)
1 | CC(=O)Oc1ccc2c(c1)c1c(=O)oc(C)nc1n2Cc1ccccc1 | > 100 µM | > 100 µM | > 91.2 µM | > 100 µM | > 100 µM | > 100 µM | > 88.1 µM | > 100 µM | > 100 µM | > 100 µM | 68.5 µM | > 100 µM | > 100 µM | 98.6 µM | > 100 µM | > 100 µM | > 100 µM | 60.5 µM | > 100 µM | > 100 µM
2 | CC(C(=O)OCc1ccccc1)(c1ccco1)N1C(=O)OC(c2ccccc2)C1c1ccccc1 (stereo not given) | > 100 µM | > 100 µM | > 100 µM | > 100 µM | > 100 µM | > 100 µM | > 100 µM | > 100 µM | > 100 µM | > 100 µM | > 100 µM | > 100 µM | > 100 µM | > 100 µM | > 100 µM | > 100 µM | > 100 µM | > 100 µM | > 100 µM | > 100 µM
3 | S=C1SSC2N=CC=CC12 (stereo not given) | > 100 µM | > 100 µM | > 100 µM | > 100 µM | > 100 µM | > 100 µM | > 100 µM | 33 µM | > 100 µM | > 100 µM | > 100 µM | > 100 µM | > 100 µM | > 100 µM | > 100 µM | > 100 µM | > 100 µM | > 100 µM | 61.4 µM | > 100 µM
4 | CC1=NC(=Cc2cc(Br)cc(Br)c2)C(=O)N1n1c(-c2ccccc2)nc2ccccc2c1=O | > 100 µM | > 100 µM | > 100 µM | > 100 µM | > 100 µM | > 100 µM | > 100 µM | > 100 µM | > 100 µM | > 100 µM | > 100 µM | > 100 µM | > 100 µM | > 100 µM | > 100 µM | > 100 µM | > 100 µM | > 100 µM | > 100 µM | > 100 µM
5 | CC(=O)O[C@H]1CC[C@@]2(C)C(=CC[C@@H]3[C@@H]2CC[C@]2(C)NC(=O)/C(=C\c4ccccc4)C[C@@H]32)C1 | 33.1 µM | 42 µM | 80.5 µM | 69.2 µM | 28.9 µM | 33.4 µM | 42.6 µM | 42.7 µM | 31.8 µM | 53 µM | 27.8 µM | 35 µM | 76.1 µM | 44.3 µM | 32.3 µM | 34.8 µM | 64.2 µM | 31.7 µM | 62 µM | 48 µM
6 | O=[N+]([O-])/C(C(Cl)=C(Cl)Cl)=C(/Nc1ccccc1)SCc1ccccc1 | 40.5 µM | 39.9 µM | 60.6 µM | > 100 µM | 28.7 µM | 39.1 µM | 33.9 µM | 32.5 µM | 58.4 µM | 36.4 µM | 35.5 µM | 41.2 µM | 77.4 µM | > 100 µM | 39.2 µM | 48.6 µM | 37.7 µM | 47.1 µM | 45 µM | 59.4 µM
7 | Cc1nn(C(=O)c2ccc(Cl)cc2)c2c1C(/C=C/c1ccccc1)SC(N)=N2 (stereo not given) | > 10 µM | > 10 µM | > 10 µM | > 10 µM | > 10 µM | > 10 µM | > 10 µM | > 10 µM | > 10 µM | > 10 µM | > 10 µM | > 10 µM | > 10 µM | > 10 µM | > 10 µM | > 10 µM | > 10 µM | > 10 µM | > 10 µM | > 10 µM
8 | Ic1cccc(/C=C/CN2CCN(CCOC(c3ccccc3)c3ccccc3)CC2)c1 | 40 µM | 40.9 µM | 31.6 µM | 33.3 µM | 32.4 µM | 26.8 µM | 41.9 µM | 31 µM | 34.9 µM | 32.4 µM | 27.5 µM | 36.9 µM | > 100 µM | 63.4 µM | 50.1 µM | 41.4 µM | 14.3 µM | 36.8 µM | 20.4 µM | 28.3 µM
